Test results from PMC5890244, “Stimulus dependent diversity and stereotypy in the output of an olfactory functional unit” (Nature Communications, 2018).

Molecular target: T1, M72 odorant receptor (olfr160) (Mus musculus, UniProt A1L3R1)
T1 construct: full-length native receptor in its own olfactory sensory neurons of gene-targeted M72-GFP mice (neonatal epithelium); GFP serves as cell marker
T1 sequence (A1L3R1 1-309): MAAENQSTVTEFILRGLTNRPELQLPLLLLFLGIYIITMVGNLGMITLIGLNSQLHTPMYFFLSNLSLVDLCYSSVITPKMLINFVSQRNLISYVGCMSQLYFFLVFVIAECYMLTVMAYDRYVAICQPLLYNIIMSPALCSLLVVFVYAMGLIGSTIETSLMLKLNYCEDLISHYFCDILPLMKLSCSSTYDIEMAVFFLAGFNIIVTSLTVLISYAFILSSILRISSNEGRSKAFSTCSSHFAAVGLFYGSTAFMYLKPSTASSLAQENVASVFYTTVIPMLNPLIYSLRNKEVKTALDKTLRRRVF
Assay: perforated patch clamp of dendritic knobs of M72-expressing OSNs, Hill fit
Type: cell-based
Conditions: 20-23 °C, pH 7.4; native OSNs; odorant from DMSO stock by pressure ejection; lower end of range, strongest ligand
Source text: perforated patch clamp of dendritic knobs of M72-expressing OSNs, Hill fit on M72 odorant receptor (olfr160) | 2HA is the strongest ligand yet identified for M72 | Normalized dose–response curves for seven M72 ligands fitted by the Hill equation

EC50: 30 nM
Compound: CC(=O)c1ccccc1O [2HA, 2-hydroxyacetophenone]
